Laboratory results as given in US6268220A, “Diagnostic method for atherosclerosis” (Washington University, priority 1996, dated 2001).
Entries after “also recorded” stand apart in the source; their conditions may differ.

Experiments:
[1] = test system: apolipoprotein B100 of LDL; assay: Production of 3-chlorotyrosine in LDL modified by different oxidation systems; assay type: biochemical, human; details: 37° C.; for 3-chlorotyrosine content of LDL exposed to oxidation system: LDL 512 μg protein/ml, pH 7.4, 60 min or 24 h, FIG. 2, result in words
Procedure: FIG. 2 show production of 3-chlorotyrosine in LDL modified by different oxidation systems. LDL (512 μg protein/ml) was incubated at 37° C. in phosphate buffered saline (10 mM sodium phosphate, 150 mM NaCl, pH 7.4) alone (Control) or with the indicated oxidation system. The complete myeloperoxidase-H2 O2 --Cl^- system consisted of 20 nM myeloperoxidase and 100 μM H2 O2. HOCl was used at 100 μM. Horseradish peroxidase (10 μg/ml and lactoperoxidase (10 μg/ml) were used with 100 μM H2 O2. LDL was exposed to myeloperoxidase, HOCl, horseradish peroxidase and lactoperoxidase for 60 min.
All other oxidation reactions were carried out for 24 h. Final concentrations of oxidants were: peroxynitrite, 100 μM; CuSO4, 10 μM; CuSO4 and H2 O2, 100 μM and 2 mM, respectively; FeSO4, 10 μM; hemin, 10 μM; and glucose, 100 mM. LDL oxidation by lipoxygenase was performed in 50 mM borate, 150 mM NaCl supplemented with phospholipase A2 as previously described (45).
Reaction products were delipidated, acid hydrolyzed, and the 3-chlorotyrosine content of the amino acid hydrolysate determined by stable isotope dilution GC-MS analysis. Values are the mean of duplicate determinations. […] HRP, horseradish peroxidase; MPO, myeloperoxidase-peroxidase.
The complete system consisted of Buffer B (20 mM Na[PO4 ], pH 7.0, 100 μM DTPA) supplemented with LDL (512 μg protein/ml), myeloperoxidase (MPO; 40 nM), H2 O2 (100 μM) and Cl^- (as NaCl; 100 mM). After a 1 h incubation at 37° C., the 3-chlorotyrosine content was determined by stable isotope dilution GC-MS as described under "Methods." The limit of detection of the assay was <0.1 umol 3-chlorotyrosine per mol L-tyrosine. Values are the mean of duplicate determinations.

Human neutrophils = assay: Formation of 3-chlorotyrosine in LDL exposed to activated human phagocytes; assay type: cell-based; details: FIG. 1
Procedure: Human neutrophils (1×10^6 /ml) were incubated at 37° C. in Hank's Balanced Salt Solution supplemented with DTPA (100 μM) and LDL (512 μg protein/ml). Neutrophils were activated with phorbol ester (PMA; 200 nM) and maintained in suspensions by intermittent inversion (Complete neutrophil system).
Following a 60 min incubation, neutrophils were removed by centrifugation. The supernatant was delipidated and dialyzed, ^13 C-labeled internal standards were added, and the samples were then subjected to acid hydrolysis. The content of L-tyrosine and 3-chlorotyrosine in acid hydrolysates were determined by stable isotope dilution GC-MS analysis as described under "Method", below.
Additions or deletions to the complete system were as indicated. The final concentrations of additions were:
3-Chlorotyrosine content of LDL is normalized to the content of the precursor amino acid L-tyrosine. Values are the mean of duplicate determinations.
(§1) General Procedures--All glassware was rendered chlorine-demand free (<3% consumption of 1 mM HOCl in a 10 min incubation at 37° C. within a gas-tight vial as monitored by the oxidation of iodide to triiodide) prior to use (12,25,27). […] Myeloperoxidase (donor: hydrogen peroxide, oxidoreductase, EC 1.11.1.7) was isolated (final A430 /A280 ratio of 0.6) as previously described (28,29). Enzyme concentration was determined spectrophotometrically ε430 =[…] cm^-1; ref. 30). Human neutrophils were isolated by buoyant density centrifugation (31). Medium A (Hank's balanced salt solution (magnesium-, calcium-, phenol- and bicarbonate-free; Gibco-BRL, Gaithersburg, Md.), pH 7.2, supplemented with 100 μM diethylenetriamine pentaacetic acid (DTPA) was used for neutrophil isolation and experiments.

myeloperoxidase = molecular target: T1, myeloperoxidase (Homo sapiens, UniProt P05164); assay: Chlorination of apolipoprotein B100 of LDL by the myeloperoxidase-H2O2-Cl- system (3-chlorotyrosine by GC-MS); assay type: biochemical; details: for 3-Chlorotyrosine/L-Tyrosine: Complete system (LDL 512 μg protein/ml, MPO 40 nM, H2O2 100 μM, Cl- 100 mM) plus additive at printed concentration, 1 h, 37° C., complete system alone 50, detection limit <0.1
T1 construct: light and heavy chains, homodimer) with H2O2, chloride and human LDL as substrate
T1 sequence (P05164 49-745): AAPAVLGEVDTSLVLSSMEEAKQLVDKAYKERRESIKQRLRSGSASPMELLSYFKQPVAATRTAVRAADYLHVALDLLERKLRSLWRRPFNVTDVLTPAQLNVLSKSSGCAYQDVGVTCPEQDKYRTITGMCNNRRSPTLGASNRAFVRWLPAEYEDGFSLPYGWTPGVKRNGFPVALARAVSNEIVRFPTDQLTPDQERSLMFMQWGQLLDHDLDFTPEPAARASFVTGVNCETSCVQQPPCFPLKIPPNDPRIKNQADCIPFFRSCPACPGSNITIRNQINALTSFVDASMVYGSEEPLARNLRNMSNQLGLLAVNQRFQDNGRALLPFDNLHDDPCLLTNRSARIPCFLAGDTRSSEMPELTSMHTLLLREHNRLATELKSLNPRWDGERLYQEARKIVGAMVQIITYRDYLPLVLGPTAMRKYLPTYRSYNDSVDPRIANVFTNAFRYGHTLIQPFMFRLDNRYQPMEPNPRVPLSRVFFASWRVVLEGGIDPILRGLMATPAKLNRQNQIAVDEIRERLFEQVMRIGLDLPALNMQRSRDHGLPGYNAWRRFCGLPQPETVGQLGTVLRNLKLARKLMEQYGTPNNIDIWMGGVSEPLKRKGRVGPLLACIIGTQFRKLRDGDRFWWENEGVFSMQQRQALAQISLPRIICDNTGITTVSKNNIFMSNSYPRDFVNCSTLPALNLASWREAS
Procedure: as §1
Following the addition of 10 pmol 3-[^13 C6 ]chlorotyrosine and 100 nmol L-[^13 C6 ]tyrosine, delipidated and dialyzed protein (~1-4 mg) suspended in Buffer B was dried under vacuum in a glass reaction vial. Each vial then received 0.5 ml HBr (6 N) containing 1% phenol. […]
Mass Spectrometric Analysis--n-Propyl, perheptafluorobutyl (HFB) and n-propyl, perpentafluoroproprionyl (PFP) derivatives of amino acids were prepared (38) and analyzed on a Hewlett Packard 5890 Gas Chromatograph interfaced with a Hewlett Packard 5988A Mass Spectrometer equipped with extended mass range. […]
Amino acids were quantified utilizing stable isotope dilution GC-MS analysis in the negative-ion chemical ionization mode (25,26). 3-Chlorotyrosine was monitored as its n-propyl-per-HFB derivative utilizing selected ion monitoring of the base peak at mass-to-charge ratio (m/z) 451 (M^.- -HFB), another prominent ion at m/z 629 (M^.- -HF), and their isotopically labeled internal standard ions at m/z 457 and 635, respectively.
L-Tyrosine was monitored as its n-propyl-per-HFB derivative using the base peak at m/z 417 (M^.- -HFB), another major ion at m/z 595 (M^.- -HF), and their labeled internal standard ions at m/z 423 and 601, respectively. […]

[2] = PMA-activated human neutrophils 1×10^6/ml, 60 min, 37° C., additive to complete neutrophil system

## OCl [HOCl, hypochlorous acid]
[1]
  3-chlorotyrosine content of LDL exposed to oxidation system: resulted in 3-chlorotyrosine formation; also recorded: Significant levels
[1]; LDL + HOCl (100 μM), no enzyme, 1 h
  3-Chlorotyrosine/L-Tyrosine: 68 umol/mol

## [N-]=[N+]=[N-].[Na+] [NaN3]
Human neutrophils; [2]
  3-chlorotyrosine production in LDL incubated with activated phagocytes: inhibited
myeloperoxidase
  3-Chlorotyrosine/L-Tyrosine: 0 umol/mol

## O=S(=O)([O-])[O-].[Cu+2] [copper, CuSO4]
[1]
  3-chlorotyrosine content of LDL exposed to oxidation system: little change

## C[C@H](CCC(=O)O)C[C@H](C)C[C@H](C)C(=O)/C=C(\O)[C@H](C)C[C@H](C)C/C=C/[C@@H](C)[C@@H](O)[C@@H](C)[C@@H](O)C[C@@H]1CC[C@@](C)([C@H]2CC[C@@](C)([C@@H](C)O)O2)O1 [ionomycin]
Human neutrophils; ionomycin (1 μM) added together with superoxide dismutase (10 μg/ml)
  3-chlorotyrosine production in LDL incubated with activated phagocytes: further generation

## O=S(=O)([O-])[O-].[Fe+2] [iron, FeSO4]
[1]
  3-chlorotyrosine content of LDL exposed to oxidation system: little change

## O=NOO [peroxynitrite]
[1]
  3-chlorotyrosine content of LDL exposed to oxidation system: little change

## glucose
[1]
  3-chlorotyrosine content of LDL exposed to oxidation system: little change

## horseradish peroxidase
[1]
  3-chlorotyrosine content of LDL exposed to oxidation system: little change

## lactoperoxidase
[1]
  3-chlorotyrosine content of LDL exposed to oxidation system: little change

## superoxide dismutase: catalyzes the conversion of O2.- into H2O2
Human neutrophils; [2]
  3-chlorotyrosine production in LDL incubated with activated phagocytes: further generation

B1: Catalase: a peroxide scavenger (protein, UniProt P00432 2-527, looked up)
Catalase: ADNRDPASDQMKHWKEQRAAQKPDVLTTGGGNPVGDKLNSLTVGPRGPLLVQDVVFTDEMAHFDRERIPERVVHAKGAGAFGYFEVTHDITRYSKAKVFEHIGKRTPIAVRFSTVAGESGSADTVRDPRGFAVKFYTEDGNWDLVGNNTPIFFIRDALLFPSFIHSQKRNPQTHLKDPDMVWDFWSLRPESLHQVSFLFSDRGIPDGHRHMNGYGSHTFKLVNANGEAVYCKFHYKTDQGIKNLSVEDAARLAHEDPDYGLRDLFNAIATGNYPSWTLYIQVMTFSEAEIFPFNPFDLTKVWPHGDYPLIPVGKLVLNRNPVNYFAEVEQLAFDPSNMPPGIEPSPDKMLQGRLFAYPDTHRHRLGPNYLQIPVNCPYRARVANYQRDGPMCMMDNQGGAPNYYPNSFSAPEHQPSALEHRTHFSGDVQRFNSANDDNVTQVRTFYLKVLNEEQRKRLCENIAGHLKDAQLFIQKKAVKNFSDVHPEYGSRIQALLDKYNEEKPKNAVHTYVQHGSHLSAREKANL
Human neutrophils; [2]
  3-chlorotyrosine production in LDL incubated with activated phagocytes: inhibited
myeloperoxidase
  3-Chlorotyrosine/L-Tyrosine: 0 umol/mol
myeloperoxidase; additive to complete system, result in words
  Chlorination of apolipoprotein B100 (3-chlorotyrosine production) by myeloperoxidase-H2O2-Cl- system: blocked
